{"source": "patent US20150329883A1", "about": "(Samsung Electronics Co., Ltd., priority 2014, published 2015)", "key": {"[1]": {"test_system": "S003/pGEX4-NCgl0275 strain", "test": "microbe, parasite or virus in culture", "text": "A strain that overexpresses the fourteen SRGs was obtained by cloning the SRGs to Xhol/BamHI restriction site of a pGEX-4 vector to be expressed under an influence of a Ptuf promoter as described in “2. Preparation of pGEX_Ptuf::Ncgl1853, Ncgl1855, Ncgl2988, Ncgl2425, Ncgl2404, Ncgl0368, Ncgl2877, Ncgl0275, Ncgl2359, Ncgl1525, Ncgl0976, Ncgl2673, Ncgl2297, and Ncgl1524 vector” under “Material and Method”, and then introducing each of the vectors thus obtained to a Corynebacterium glutamicum S003 strain."}, "[2]": {"test_system": "Corynebacterium S003 strain (Δldh, Δpta-ackA, ΔpoxB, and ΔactA)", "test": "microbe, parasite or virus in culture", "conditions": "for IC50: Corynebacterium", "experimental": "In particular, for a seed culture, the strain was streaked on an active plate including agar 5 g/L of yeast extract, 10 g/L of beef extract, 10 g/L of polypeptone, 5 g/L of NaCl, and 20 g/L of agar, and then cultured at a temperature of 30° C. for about 48 hours. A single colony obtained therefrom was inoculated in 5 ml of a BHIS medium (including 37 g/L of brain-heart infusion agar, 91 g/L of D-sorbitol, pH 7.0) and grown overnight at a temperature of 30° C.\n1 ml of the obtained culture solution was inoculated in a 25 ml of BHIS in a 250 ml flask and grown until an OD600 value was 5.0. The culture solution was centrifuged, a supernatant thereof was removed to collect the microorganism only, and the microorganism was washed with CGXII minimal medium. The CGXII minimal medium includes 20 g/L of (NH4)2SO4, 5 g/L of urea, 1 g/L of KH2PO4, 1 g/L of K2HPO4, 0.25 g/L of MgSO4.7H2O, 10 mg/L of CaCl2, 10 mg/L of FeSO4.7H2O, 0.1 mg/L of MnSO4.H2O, 1 mg/L of ZnSO4.7H2O, 0.2 mg/L of CuSO4.5H2O, […], 0.2 mg/L of biotin, 42 g/L of 3-morpholinopropanesulfonic acid (MOPS), and 4% (w/v) of glucose."}, "[3]": {"test_system": "Corynebacterium glutamicum S003 strain", "conditions": "0.0625 M succinic acid, anaerobic, 5 hours, vs control without succinic acid", "experimental": "After isolating total RNA from the cultured cells by using RNeasy midi kit (Qiagen), a transciptome was analyzed by using a Corynebacterium glutamicum ATCC 13032, 3×20K chip microarray (MYcroarray.com) according the protocol of the same manufacturer. 6134 unique probes are immobilized on the chip, where each of the probes is a three-times repeat."}, "[4]": {"conditions": "0.25 M succinic acid, anaerobic, S003 strain"}}, "note": "“And” between values parts separate entries of the source, which are not always exact repeats. Equal values may be shown once. Read-outs that look alike come from different tables or passages of the source.", "data": [{"smiles": "O=C(O)CCC(=O)O", "note": "[succinic acid]", "values": [{"measurement": "IC50", "setting": "[1]; Corynebacterium glutamicum, read-out: IC50 value of the glucose uptake rate", "result": 70.8, "unit": "mg/mL"}, {"measurement": "increase of IC50 compared to the control group", "setting": "[1]; S003/pGEX4-NCgl0275 strain vs control", "result": "about 5.45 fold"}, {"measurement": "glucose uptake rate compared with control group", "setting": "[2]; 0.0625 M succinic acid, after 15 hours", "result": "the same"}, {"measurement": "glucose uptake", "setting": "[2]; 0.0625 M succinic acid, within the first 5 hours", "result": "suppressed"}, {"measurement": "decrease of glucose uptake rate", "setting": "[2]; [4]", "result": "about 66.4%"}, {"measurement": "succinic acid production", "setting": "[2]; [4]", "result": "almost not produced"}, {"measurement": "IC50", "setting": "[2]; read-out: IC50 value of the glucose uptake rate", "result": 13, "unit": "mg/mL"}, {"measurement": "IC50", "setting": "[2]; read-out: IC50 value of the succinic acid production", "result": "100 mM and 11800 µg/mL"}, {"measurement": "Fold of reduction of expression, Ncgl0275 (whiB4)", "setting": "[3]", "result": 1.56, "unit": "fold"}, {"measurement": "Fold of reduction of expression, Ncgl0368", "setting": "[3]", "result": 1.60, "unit": "fold"}, {"measurement": "Fold of reduction of expression, Ncgl1524 (tpi/tpiA)", "setting": "[3]", "result": 1.700, "unit": "fold"}, {"measurement": "Fold of reduction of expression, Ncgl1853 (nrdR)", "setting": "[3]", "result": 4.24, "unit": "fold"}, {"measurement": "Fold of reduction of expression, Ncgl1855 (lexA)", "setting": "[3]", "result": 2.44, "unit": "fold"}, {"measurement": "Fold of reduction of expression, Ncgl2297 (mdh)", "setting": "[3]", "result": 1.700, "unit": "fold"}, {"measurement": "Fold of reduction of expression, Ncgl2359", "setting": "[3]", "result": 1.52, "unit": "fold"}, {"measurement": "Fold of reduction of expression, Ncgl2404", "setting": "[3]", "result": 1.73, "unit": "fold"}, {"measurement": "Fold of reduction of expression, Ncgl2425", "setting": "[3]", "result": 1.74, "unit": "fold"}, {"measurement": "Fold of reduction of expression, Ncgl2673 (fda)", "setting": "[3]", "result": 1.820, "unit": "fold"}, {"measurement": "Fold of reduction of expression, Ncgl2877", "setting": "[3]", "result": 1.57, "unit": "fold"}, {"measurement": "Fold of reduction of expression, Ncgl2988 (parB)", "setting": "[3]", "result": 1.91, "unit": "fold"}, {"measurement": "reduction of expression of nine expected transcription regulator genes (NCgl1853, NCgl1855, NCgl0368, NCgl0275, NCgl2359, NCgl2404, NCgl2425, NCgl2988, NCgl2877)", "setting": "[3]", "result": "≥ 1.5", "unit": "fold"}]}]}
